Key:
Cathepsin B = Cathepsin B (Homo sapiens, UniProt P07858); experiment: Inhibition of human liver cathepsin B using Z-R-R-AMC as substrate preincubated with compound for 5 mins measured after 20 mins by fluorescence analysis
Procathepsin L = Procathepsin L (Homo sapiens, UniProt P07711); experiment: Inhibition of human liver cathepsin L using Z-R-R-AMC as substrate preincubated with compound for 5 mins measured after 20 mins by fluorescence analysis
Procathepsin L, sequence (P07711 whole entry): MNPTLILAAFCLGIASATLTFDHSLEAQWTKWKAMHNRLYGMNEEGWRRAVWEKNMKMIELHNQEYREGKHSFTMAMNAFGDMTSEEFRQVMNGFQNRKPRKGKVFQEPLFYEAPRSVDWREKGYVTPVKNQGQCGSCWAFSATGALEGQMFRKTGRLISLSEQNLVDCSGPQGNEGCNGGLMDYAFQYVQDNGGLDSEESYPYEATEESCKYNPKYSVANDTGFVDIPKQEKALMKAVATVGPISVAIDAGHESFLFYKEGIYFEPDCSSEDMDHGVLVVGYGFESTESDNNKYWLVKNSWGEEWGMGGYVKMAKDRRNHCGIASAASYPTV

Structure (SMILES) | IC50 (Cathepsin B) [µM] | IC50 (Procathepsin L) [nM]
NC(=S)N/N=C1\CCSc2ccc(Cl)cc21 | > 10 | 228
NC(=S)N/N=C1\CCS(=O)(=O)c2cc(F)c(F)cc21 | > 10 | 3650
NC(=S)N/N=C1\CCS(=O)(=O)c2c(F)cc(F)cc21 | > 10 | > 10000
NC(=S)N/N=C1\CCS(=O)(=O)c2c(Br)cc(F)cc21 | > 10 | > 10000
NC(=S)N/N=C1\CCS(=O)(=O)c2c(F)cc(Br)cc21 | > 10 | 1120
Cc1ccc2c(c1)/C(=N/NC(N)=S)CCS2(=O)=O | > 10 | > 10000
CCc1ccc2c(c1)/C(=N/NC(N)=S)CCS2(=O)=O | > 10 | 6520
CC(C)c1ccc2c(c1)/C(=N/NC(N)=S)CCS2(=O)=O | > 10 | > 10000
COc1ccc2c(c1)/C(=N/NC(N)=S)CCS2(=O)=O | > 10 | > 10000
NC(=S)N/N=C1\CCS(=O)(=O)c2ccc(C(F)(F)F)cc21 | > 10 | 260
NC(=S)N/N=C1\CCS(=O)(=O)c2ccc(OC(F)(F)F)cc21 | > 10 | 3960
NC(=S)N/N=C1\CCS(=O)(=O)c2ccc([N+](=O)[O-])cc21 | > 10 | 112
CC(=O)Nc1ccc2c(c1)/C(=N/NC(N)=S)CCS2(=O)=O | > 10 | > 10000
NC(=S)N/N=C1\CCS(=O)(=O)c2ccc(Br)cc21 | > 10 | 574
NC(=S)NN=C1CCSc2ccc(N)cc21 (mixture of isomers) | > 10 | > 10000
NC(=S)NN=C1CCS(=O)(=O)c2ccc(O)cc21 (mixture of isomers) | > 10 | > 10000

Second part, the compound after the results:

IC50 (Cathepsin B) [µM] | IC50 (Procathepsin L) [nM] | Structure (SMILES)
> 10 | > 10000 | NC(=S)N/N=C1\CCSc2c(OC(F)(F)F)cccc21
> 10 | 741 | NC(=S)N/N=C1\CCSc2ccc(F)cc21
> 10 | 152 | NC(=S)N/N=C1\CCSc2ccc(Br)cc21
> 10 | 46 | NC(=S)N/N=C1\CCSc2cc(F)c(F)cc21
> 10 | 1500 | NC(=S)N/N=C1\CCSc2c(F)cc(F)cc21
> 10 | > 10000 | NC(=S)N/N=C1\CCSc2c(Br)cc(F)cc21
> 10 | 434 | NC(=S)N/N=C1\CCSc2c(F)cc(Br)cc21
> 10 | 214 | Cc1ccc2c(c1)/C(=N/NC(N)=S)CCS2
> 10 | 2720 | CCc1ccc2c(c1)/C(=N/NC(N)=S)CCS2
> 10 | > 10000 | CC(C)c1ccc2c(c1)/C(=N/NC(N)=S)CCS2
> 10 | > 10000 | COc1ccc2c(c1)/C(=N/NC(N)=S)CCS2
> 10 | > 10000 | CSc1ccc2c(c1)/C(=N/NC(N)=S)CCS2
> 10 | 284 | NC(=S)N/N=C1\CCSc2ccc(C(F)(F)F)cc21
> 10 | 256 | NC(=S)N/N=C1\CCSc2ccc(OC(F)(F)F)cc21
> 10 | > 10000 | NC(=S)N/N=C1\CCSc2ccc(O)cc21
> 10 | 68 | NC(=S)N/N=C1\CCSc2ccc([N+](=O)[O-])cc21
> 10 | > 10000 | CC(=O)Nc1ccc2c(c1)/C(=N/NC(N)=S)CCS2
> 10 | > 10000 | NC(=S)N/N=C1\CCSc2ccc3ccccc3c21
> 10 | > 10000 | NC(=S)N/N=C1\CCS(=O)(=O)c2ccc(F)cc21
> 10 | > 10000 | NC(=S)N/N=C1\CCS(=O)(=O)c2ccc(Cl)cc21

From ChEMBL document CHEMBL2062494, “Synthesis and biochemical evaluation of thiochromanone thiosemicarbazone analogues as inhibitors of cathepsin L” (ACS Med Chem Lett, 2012)
